Laboratory results from ChEMBL document CHEMBL4819050, “Discovery of a novel series of guanidinebenzoates as gut-restricted enteropeptidase and trypsin dual inhibitors for the treatment of metabolic syndrome” (Bioorg Med Chem Lett, 2021).

Key:
[1] = species: Bos taurus; experiment: Inhibition of bovine trypsin assessed as protease activity using D-CHA-AR-AMC as substrate at 1 uM by fluorescence assay relative to control; design: scale not given: the % may be the effect or the level left
[2] = Apparent permeability from apical to basolateral side in dog MDCK cells; assay type: ADME, cell-based, Canis lupus familiaris
[3] = In vivo inhibition of EP in diet induced obese C57BL/6J mouse assessed as increase in fecal protein content at 30 mg/kg, po measured after 24 hrs relative to control; assay type: functional
[4] = target: Enteropeptidase (Homo sapiens) (UniProt P98073); experiment: Inhibition of full length recombinant human EP expressed in CHO cells assessed as protease activity using […] as substrate at 1 uM by fluorescence assay relative to control; design: scale not given: the % may be the effect or the level left
[5] = species: Bos taurus; experiment: Inhibition of bovine trypsin assessed as protease activity using D-CHA-AR-AMC as substrate at 0.1 uM by fluorescence assay relative to control; design: scale not given: the % may be the effect or the level left
[6] = target: Enteropeptidase (Homo sapiens) (UniProt P98073); experiment: Inhibition of full length recombinant human EP expressed in CHO cells assessed as protease activity using […] as substrate at 10 uM by fluorescence assay relative to control; design: scale not given: the % may be the effect or the level left
[7] = target: Enteropeptidase (Homo sapiens) (UniProt P98073); experiment: Inhibition of full length recombinant human EP expressed in CHO cells assessed as protease activity using […] as substrate at 0.1 uM by fluorescence assay relative to control; design: scale not given: the % may be the effect or the level left
[8] = species: Bos taurus; experiment: Inhibition of bovine trypsin assessed as protease activity using D-CHA-AR-AMC as substrate at 10 uM by fluorescence assay relative to control; design: scale not given: the % may be the effect or the level left
[9] = Cmax in C57BL/6J mouse at 20 mg/kg, po; assay type: ADME, organism-based; design: route oral, dose 20 mg/kg; conditions: in vivo
[10] = Volume of distribution at steady state in C57BL/6J mouse at 5 mg/kg, iv; assay type: ADME, organism-based; conditions: in vivo, read-out: Vdss
[11] = Oral bioavailability in C57BL/6J mouse at 20 mg/kg; assay type: ADME, organism-based; conditions: in vivo
[12] = target: Enteropeptidase (Homo sapiens) (UniProt P98073); experiment: Inhibition of full length recombinant human EP expressed in CHO cells assessed as ratio of Kinact/Kiapp; assay type: cell-based
[13] = Clearance in C57BL/6J mouse at 5 mg/kg, iv; assay type: ADME, organism-based; conditions: in vivo
[14] = AUClast in C57BL/6J mouse at 20 mg/kg, po; assay type: ADME, organism-based; design: route oral, time 0 - last, dose 20 mg/kg; conditions: in vivo
[15] = species: Bos taurus; experiment: Inhibition of bovine trypsin assessed as ratio of Kinact/Kiapp

Chain of Enteropeptidase (Homo sapiens) (P98073 2-784 limits assumed): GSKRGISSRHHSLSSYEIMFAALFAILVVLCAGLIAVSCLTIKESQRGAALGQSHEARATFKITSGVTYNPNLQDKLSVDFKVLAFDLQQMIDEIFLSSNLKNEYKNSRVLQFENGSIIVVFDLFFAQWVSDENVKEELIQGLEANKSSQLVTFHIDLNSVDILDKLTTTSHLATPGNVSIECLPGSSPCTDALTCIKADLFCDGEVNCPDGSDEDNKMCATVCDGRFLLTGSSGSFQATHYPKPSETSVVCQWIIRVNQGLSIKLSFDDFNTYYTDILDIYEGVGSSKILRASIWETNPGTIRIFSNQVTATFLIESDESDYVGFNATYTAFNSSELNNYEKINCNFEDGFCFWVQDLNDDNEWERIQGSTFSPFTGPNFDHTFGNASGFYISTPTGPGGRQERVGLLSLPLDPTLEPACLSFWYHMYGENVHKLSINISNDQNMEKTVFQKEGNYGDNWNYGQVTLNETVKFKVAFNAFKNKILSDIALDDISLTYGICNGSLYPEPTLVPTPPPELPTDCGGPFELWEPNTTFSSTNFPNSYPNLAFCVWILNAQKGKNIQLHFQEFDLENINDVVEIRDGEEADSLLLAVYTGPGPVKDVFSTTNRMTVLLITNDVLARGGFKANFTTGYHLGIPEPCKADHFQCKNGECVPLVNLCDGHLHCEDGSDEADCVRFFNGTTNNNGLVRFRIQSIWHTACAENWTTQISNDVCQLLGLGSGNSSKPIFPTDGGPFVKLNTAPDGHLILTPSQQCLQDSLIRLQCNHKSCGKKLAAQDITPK
Chain of Enteropeptidase (Homo sapiens) (P98073 785-1019 limits assumed): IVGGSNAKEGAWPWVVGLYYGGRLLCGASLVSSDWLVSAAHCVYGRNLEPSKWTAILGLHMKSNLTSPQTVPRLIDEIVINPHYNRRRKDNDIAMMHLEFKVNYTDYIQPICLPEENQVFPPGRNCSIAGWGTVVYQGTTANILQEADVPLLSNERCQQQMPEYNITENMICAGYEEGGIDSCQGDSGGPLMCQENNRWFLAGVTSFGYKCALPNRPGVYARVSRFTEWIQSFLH

Q: Which Activity [1] does the source give for `N=C(N)Nc1ccc(C(=O)Oc2ccc(CC(=O)N(CC(=O)O)CC(=O)O)n3ncnc23)cc1` here?
A: The Activity was 99.9%.

Q: And the Papp A→B [2]?
A: The Papp A→B was 1.26 ×10⁻⁶ cm/s.

Q: And the “fold change (FC)” value [3]?
A: Its value is 1.5.

Q: And the Activity [4]?
A: The Activity was 72.9%.

Q: What about the Activity [5] of the same compound?
A: The Activity was 89.6%.

Q: What about the Activity [6] of the same compound?
A: The Activity was 101%.

Q: What about the Activity [7] of the same compound?
A: The Activity was 20.9%.

Q: What about the Activity [8] of the same compound?
A: The Activity was 100%.

Q: With `N=C(N)Nc1ccc(C(=O)Oc2ccc(CC(=O)N[C@@H](CC(=O)O)C(=O)O)n3ncnc23)cc1` as the compound, how does the Activity [1] read?
A: Its Activity is 100%.

Q: What about the Papp A→B [2] of the same compound?
A: The Papp A→B was 0.56 ×10⁻⁶ cm/s.

Q: And the “fold change (FC)” value [3]?
A: The value was 2.4.

Q: What about the Activity [4] of the same compound?
A: Its Activity is 101%.

Q: And the Activity [5]?
A: Its Activity is 98.3%.

Q: And the Activity [6]?
A: Its Activity is 101%.

Q: What about the Activity [7] of the same compound?
A: The Activity was 48.3%.

Q: And the Activity [8]?
A: The Activity was 100%.

Q: Which results are given for `N=C(N)Nc1ccc(C(=O)Oc2ccc(CC(=O)O)n3ncnc23)cc1`?
A: Activity [1]: 100%; Papp A→B [2]: 1.53 ×10⁻⁶ cm/s; fold change (FC) [3]: 2.4; Cmax [9]: 43 ng/mL; Vd [10]: 3.68 L/kg; bioavailability [11]: 1.6%; Activity [4]: 100%; Ratio [12]: 130000 M⁻¹ s⁻¹; Activity [5]: 97.2%; clearance [13]: 192 mL/min/kg; AUC(0-t) [14]: 27 ng·h/mL; Ratio [15]: 159000 M⁻¹ s⁻¹; Activity [6]: 100%; Activity [7]: 97.8%; Activity [8]: 100%

Q: Which Activity [1] does the source give for `N=C(N)Nc1ccc(C(=O)Oc2ccc(CC(=O)NC(CC(=O)O)(CC(=O)O)CC(=O)O)n3ncnc23)cc1` here?
A: The Activity was 100%.

Q: What about the Papp A→B [2] of the same compound?
A: The Papp A→B was 1.09 ×10⁻⁶ cm/s.

Q: And the “fold change (FC)” value [3]?
A: Its value is 1.7.

Q: What about the Activity [4] of the same compound?
A: The Activity was 100%.

Q: What about the Activity [5] of the same compound?
A: The Activity was 94.1%.

Q: And the Activity [6]?
A: Its Activity is 100%.

Q: And the Activity [7]?
A: The Activity was 37.8%.

Q: And the Activity [8]?
A: Its Activity is 100%.
